The subject of data set [1] is MCF-7 SPS cells. The experiment in a line: LOPAC compounds tested on MCF-7 SPS cells (Table 2). Particulars: Compounds that inhibit cancer stem cells, 3 μM stated for Niclosamide.
Description: The morphology and number of the spheroids were further analyzed by software image pro plus.
For data set [2], the system named is OVCA sps cells. In words: LOPAC compounds tested on OVCA sps cells, MTS / ATP-based assay (Table 3). It counts as cell-based. Particulars: proliferation and differentiation. As to the method: CP70 sps cells were seeded in a 96-well culture plate (1×10^3 cells/well) and cultured for 24 hr, and then treated with 30 μM of various compounds selected from the LOPAC database. Following 3-day treatment, the vitality of the treated cells was measured by CellTiter-Glo® Luminescent Cell Vitality Assay kit (Promega) according to the manufacturer's instructions.
(§1) The vitality of the treated cells was measured by MTS assay using MTS-based CellTiter 96 aqueous non-radioactive cell proliferation assay kit (Promega) according to the manufacturer's instructions.

Data set [3] deals with CP70 cells. The experiment in a line: Cytotoxicity on CP70 (OVCA) cells.
The subject of data set [4] is CP70 sps cells. In words: Cytotoxicity / vitality of CP70 sps cells (MTS assay). The note with it: for inhibition / cytotoxicity effect on CP70 sps (OVCA sps) cells: 3 μM, MTS assay. As to the method: as §1
The vitality of the CP70 sps cells was measured by MTS assay. For preclinical test, two groups with five mice each were i.p. injected with 1×10^4 of CP70 sps cells alone or followed by Niclosamide treatment (10 mg/kg/daily) from day 1 to day 47, respectively. The body weights of the two groups of mice were monitored every 3 days during day 36 to day 48. After 48 days, the mice were sacrificed to examine the tumor nodules formation in the abdominal cavity.

Data set [5] deals with OVCICs sps cells collected from ovarian cancer patient(s). In words: Patients' OVCA specimen-derived cells (pdOVCICs / OVCICs sps), MTS assay. It counts as cell-based, human. The note with it: in vitro. As to the method: A total of 5000 pdOVCICs were seeded onto each well in 96-well plates and each plate was treated with different concentrations of Niclosamide in duplicates for 3 days. The vitality of pdOVCICs cells was measured by MTS assay.
For orientation: Formazan colour is commonly taken as a measure of viable cells.

Data set [6] relates to MCF-7 SPS cells. The experiment in a line: Toxicity of Paclitaxol on MCF-7 sps cells. It counts as cell-based. The source says:
(§2) Next, we compared the toxicity effects of the anti-cancer drug, Paclitaxol, on MCF-7 cells, MCF-7 SPS cells, MDA-MB 231 cells and MDA-MB 231 SPS.

Data set [7] has as its system MCF-7 cells. In words: Toxicity of Paclitaxol on MCF-7 cells. The class given is cell-based.
Description: as §2

Data set [8] has as its system shh. The experiment in a line: Signaling inhibitors on MCF-7 SPS cells: shh. It counts as cell-based. Particulars: 30 μM, 3 days. The source says:
Moreover, MCF-7 SPS cells were affected by the expression of Wnt, NOTCH and shh which caused morphological changes. […] Based on the aforementioned experiments, MCF-7 SPS cells contain cancer stem cells that can undergo further differentiation (FIG. 5B).

Where [9] appears, read: Cisplatin treatment, FIGS. 10A-10C.

Entries after “also recorded” stand apart in the source; their conditions may differ. Counter-ions that a name gives are not always drawn.

Consider `CCCCCCCCCCCCCCCC(=O)OC(CC(=O)O)C[N+](C)(C)C.[Cl-]` (racemic) [Palmitoyl-DL-Carnitine chloride], for which, in data set [1], the “Cancer cell survival (%)” value stood at 9.7%.

Turning to `CCn1cnc2c(Nc3cccc(Cl)c3)nc(N[C@@H]3CCCC[C@@H]3N)nc21.Cl` (relative stereo) [CGP-74514A hydrochloride, N2-(cis-2-Aminocyclohexyl)-N6-(3-chlorophenyl)-9-ethyl-9H-purine-2,6-diamine hydrochloride], the “Cancer cell survival (%)” value in data set [1] is reported as 10%.

For `O.c1cnc2c(c1)ccc1cccnc12` [1,10-Phenanthroline monohydrate], the “Cancer cell survival (%)” value in data set [1] is on record as 7%.

Consider `N#Cc1c(-c2ccccc2)no[n+]1[O-]` [4-Phenyl-3-furoxancarbonitrile], for which the “Cancer cell survival (%)” value in data set [1] is 1.1%.

Consider `O=Nc1ccc2oc(=O)ccc2c1` [6-Nitroso-1,2-benzopyrone], for which, in data set [1], the “Cancer cell survival (%)” value is 1.5%.

With `CC(C)(C)[C@]1(O)CCN2Cc3cccc4c3[C@H](c3ccccc3CC4)[C@@H]2C1.Cl` [(+)-Butaclamol hydrochloride], in data set [2], the “Cancer cell survival (%)” value came to 42.81%. In addition, in data set [3] (3 μM, hydrochloride), the “cytotoxicity effect on CP70 (OVCA) cells” value is recorded as “can kill; also recorded: toxic”. In addition, the “inhibition / cytotoxicity effect on CP70 sps (OVCA sps) cells” value in data set [4] (hydrochloride) is recorded as “can kill; also recorded: significant inhibition effect”; in data set [4] (listed as (+)-butaclamol hydrochloride, hydrochloride) it was “significant inhibition effects”. Moreover, the “numbers of ovarian cancer stem cells in CP70 SPS cell culture in vitro” value in data set [4] (FIG. 14 / FIG. 15) was “inhibited”. In data set [5], the “differentiation and growth of ovarian cancer cells” value is “successfully inhibited”.

In the case of `CC[C@@]1(O)C(=O)OCc2c1cc1n(c2=O)Cc2cc3ccccc3nc2-1` [(S)-(+)-Camptothecin], the “Cancer cell survival (%)” value in data set [2] was 39.11%; in data set [1] it was 8.2%.

Take `N.S=C(S)N1CCCC1` [Ammonium pyrrolidinedithiocarbamate]: the “Cancer cell survival (%)” value in data set [1] came to 4.4%.

For `O=C1Nc2cc(Br)ccc2/C1=C1/Nc2ccccc2/C1=N\O` [BIO, (2′Z,3′E)-6-Bromoindirubin-3′-oxime], the “Cancer cell survival (%)” value in data set [1] is 2.4%.

As for `CC(C)(C)c1ccc(S(=O)(=O)/C=C/C#N)cc1` [Bay 11-7085, (E)3-((4-t-Butylphenyl)sulfonyl)-2-propenenitrile], the “Cancer cell survival (%)” value in data set [1] is given as 4%.

Consider `CN1CCN(c2nc3cc(C(F)(F)F)ccc3n3cccc23)CC1.O=C(O)/C=C\C(=O)O` [CGS-12066A maleate, 7-Trifluoromethyl-4-(4-methyl-1-piperazinyl)pyrrolo-[1,2-a]quinoxaline maleate salt], for which, in data set [1], the “Cancer cell survival (%)” value came to 16.3%.

Consider `Brc1c(Br)c(Br)c2[nH]cnc2c1Br` [CK2 Inhibitor 2, 4,5,6,7-tetrabromobenzimidazole], for which the “Cancer cell survival (%)” value in data set [1] came to 8.3%.

As to `CNc1ccc2oc(C[C@H]3O[C@@]4(CC[C@H]3C)O[C@H]([C@H](C)C(=O)c3ccc[nH]3)[C@H](C)C[C@H]4C)nc2c1C(=O)O` [Calcimycin], the “Cancer cell survival (%)” value in data set [2] is 42.70%.

As for `Clc1ccc(C(c2ccc(Cl)cc2)n2cc[n+](CC(OCc3ccc(Cl)cc3Cl)c3ccc(Cl)cc3Cl)c2)cc1.[Cl-]` (centres unmarked) [Calmidazolium chloride, 1-[bis(4-Chlorophenyl)methyl]-3-[2-(2,4-dichlorophenyl)-2-(2,4-dichlorobenzyloxy)ethyl]-1H-imidazolium chloride], the “Cancer cell survival (%)” value in data set [1] was 3.9%.

`COc1ccc2c(c[n+](C)c3c4cc5c(cc4ccc23)OCO5)c1OC` [Chelerythrine chloride]: in data set [1], the “Cancer cell survival (%)” value stood at 9.9%.

Take `N.N.[Cl][Pt][Cl]` [Cisplatin]: the “inhibition of CP70 cells” value in data set [3] (setting [9]) was “inhibited”. Also, the “inhibition of CP70 sps cells” value in data set [4] (setting [9]) was “inhibited”.

On to `Cc1cc(N)c2ccccc2[n+]1CCCCCCCCCC[n+]1c(C)cc(N)c2ccccc21` [Dequalinium dichloride], for which the “Cancer cell survival (%)” value in data set [2] turned out to be 54.68%.

`C[C@@H]1O[C@@H](O[C@H]2C[C@@H](O)[C@]3(CO)[C@H]4[C@H](O)C[C@]5(C)[C@@H]([C@@H]6COC(=O)C6)CC[C@]5(O)[C@@H]4CC[C@]3(O)C2)[C@H](O)[C@H](O)[C@H]1O` [Dihydroouabain]: the results for the “Cancer cell survival (%)” value in data set [2] and in data set [1] were 45.97% and 9.1%, respectively.

With `c1ccc2c(c1)[I+]c1ccccc1-2` [Diphenyleneiodonium chloride], the “Cancer cell survival (%)” value in data set [2] is recorded as 31.37%.

With `CC[C@H]1CN2CCc3cc(OC)c(OC)cc3[C@@H]2C[C@@H]1C[C@H]1NCCc2cc(OC)c(OC)cc21` [Emetine dihydrochloride hydrate], the “Cancer cell survival (%)” value in data set [2] worked out at 49.13%; in data set [1], 7.3%.

Regarding `COc1ccc(NC(=O)c2ccc(-c3ccc(-c4noc(C)n4)cc3C)cc2)cc1N1CCN(C)CC1.Cl.O` [GR 127935 hydrochloride, N-[4-Methoxy-3-(4-methyl-1-piperazinyl)phenyl]-2′-methyl-4′-(5-methyl-1,2,4-oxadiazol-3-yl)-1,1′-biphenyl-4-carboxamide hydro chloride hydrate], the “Cancer cell survival (%)” value in data set [1] worked out at 2.8%.

As for `O=C1c2c(O)ccc(O)c2C(=O)c2c(NCCNCCO)ccc(NCCNCCO)c21` [Mitoxantrone], the “Cancer cell survival (%)” value in data set [1] is reported as 5.2%.

Turning to `C[C@@H]1O[C@@H](O[C@H]2C[C@@H](O)[C@]3(CO)[C@H]4[C@H](O)C[C@]5(C)[C@@H](C6=CC(=O)OC6)CC[C@]5(O)[C@@H]4CC[C@]3(O)C2)[C@H](O)[C@H](O)[C@H]1O` [Ouabain], the results for the “Cancer cell survival (%)” value in data set [2] and in data set [1] were 26.69% and 1.8%, respectively.

`CC(=O)O[C@H]1C(=O)[C@@]2(C)[C@H]([C@H](OC(=O)c3ccccc3)[C@]3(O)C[C@H](OC(=O)[C@H](O)[C@@H](NC(=O)c4ccccc4)c4ccccc4)C(C)=C1C3(C)C)[C@]1(OC(C)=O)CO[C@@H]1C[C@@H]2O` [Paclitaxol]: in data set [6], the “toxicity effect on MCF-7 sps cells” value is recorded as “no effect”. In addition, the “toxicity effect on MCF-7 cells” value in data set [7] is recorded as “notably inhibited”.

As to `COc1cc2nc(N3CCN(C(=O)c4ccco4)CC3)nc(N)c2cc1OC` [Prazosin hydrochloride], in data set [1], the “Cancer cell survival (%)” value amounted to 1.1%.

As for `C=CC1=C(C)c2cc3[nH]c(cc4nc(cc5[nH]c(cc1n2)c(C)c5CCC(=O)O)C(CCC(=O)O)=C4C)c(C)c3C=C` [Protoporphyrin IX disodium], the “Cancer cell survival (%)” value in data set [2] is on record as 34.75%; in data set [1], 1.8%.

With `CCN(CC)CCCC(C)Nc1c2ccc(Cl)cc2nc2ccc(OC)cc12` (centres unmarked) [Quinacrine dihydrochloride], the “Cancer cell survival (%)” value in data set [1] came out at 3.8%.

In the case of `CC1=C(/C=C/C(C)=C/C=C/C(C)=C/C(=O)Nc2ccc(O)cc2)C(C)(C)CCC1` [Retinoic acid p-hydroxyanilide], in data set [1], the “Cancer cell survival (%)” value was 13%.

Consider `CC(=O)c1c(O)c(C)c(O)c(Cc2c(O)c3c(c(C(=O)/C=C/c4ccccc4)c2O)OC(C)(C)C=C3)c1O` [Rottlerin], for which the “Cancer cell survival (%)” value in data set [2] is listed as 38.89%. The “inhibition / cytotoxicity effect on CP70 sps (OVCA sps) cells” value in data set [4] was “significant inhibition effect; also recorded: toxic”.

`COc1ccc2c(c1)/C(=C/c1cnc[nH]1)C(=O)N2` [SU 9516, 3-[1-(3H-Imidazol-4-yl)-meth-(Z)-ylidene]-5-methoxy-1,3-dihydro-indol-2-one]: the “Cancer cell survival (%)” value in data set [1] is 10.7%.

On to `C[n+]1cc2c3c(ccc2c2ccc4cc5c(cc4c21)OCO5)OCO3` [Sanguinarine chloride], for which, in data set [2], the “Cancer cell survival (%)” value came to 20.37%.

With `CCN(CC)C(=S)SSC(=S)N(CC)CC` [Tetraethylthiuram disulfide], in data set [1], the “Cancer cell survival (%)” value is reported as 10.18%.

For `CC1(C)CCC2=C(O1)c1ccccc1C(=O)C2=O` [beta-Lapachone, 3,4-Dihydro-2,2-Dimethyl-2H-Naphtho[1,2-B] Pyran-5,6-Dione], in data set [1], the “Cancer cell survival (%)” value is 1.67%.

For the compound `CC1=C2C[C@H]3[C@@H](CC=C4C[C@@H](O)CC[C@@]43C)[C@@H]2CC[C@]12O[C@@H]1C[C@H](C)CN[C@H]1[C@H]2C` [cyclopamide], the expression of shh result in data set [8] is “inhibited”.

With `CC1CCCC=CC2CC(O)CC2C(O)C=CC(=O)O1` (centres unmarked) [γ-4-Dihydroxy-2-(6-hydroxy-1-heptenyl)-4-cyclopentanecrotonic acid λ-lactone], the “Cancer cell survival (%)” value in data set [2] is on record as 41.18%; in data set [1], 6.6%.

As for Vinblastine sulfate salt, the “Cancer cell survival (%)” value in data set [2] was found to be 64.6%.

The values are drawn from US20130261142A1, “COMPOUNDS USED FOR TREATING CANCER AND THE USE THEREOF” (priority 2010, published 2013).
